In brackets after ≈: the same amount, converted by molar mass.
Columns and labels:
A549 = test: Antiproliferative activity against human A549 cells at 1 mg/ml relative to control; type: functional
MCF7 [1] = test: Antiproliferative activity against human MCF7 cells after 48 hrs by MTT assay; type: functional, cell-based; settings: MCF7, 48 h
MCF7 [2] = test: Induction of apoptosis in human MCF7 cells at 0.25 to 2 mg/ml (reference value: 1.1 +/- 0.08%); type: functional
SMMC-7721 [3] = test: Antiproliferative activity against human SMMC7721 cells at 5 ug/ml after 72 hrs by MTT assay relative to control; type: functional
SMMC-7721 [4] = test: Antiproliferative activity against human SMMC7721 cells at 100 ug/ml after 72 hrs by MTT assay relative to control; type: functional
SGC-7901 [5] = test: Induction of apoptosis in human SGC7901 cells at 30 mg/ml after 48 hrs by propidium iodide staining based flow cytometry (reference value: 3.54 +/- 0.47%); type: functional
SGC-7901 [6] = test: Induction of apoptosis in human SGC7901 cells at 60 mg/ml after 48 hrs by propidium iodide staining based flow cytometry (reference value: 3.54 +/- 0.47%); type: functional
PANC-1 = test: Induction of apoptosis in human PANC1 cells at 0.25 mg/ml by flow cytometry (reference value: 4.13%); type: functional
NB-4 [7] = test: Antiproliferative activity against human NB4 cells after 24 hrs by MTT assay; type: functional, cell-based; settings: NB-4, 24 h
U-937 = test: Antiproliferative activity against human U937 cells after 24 hrs by MTT assay; type: functional, cell-based; settings: U-937, 24 h
HL-60 = test: Induction of apoptosis in human HL60 cells after 24 hrs by Annexin V-FITC/propidium iodide staining based flow cytometry relative to control; type: functional
NB-4 [8] = test: Induction of apoptosis in human NB4 cells after 24 hrs by Annexin V-FITC/propidium iodide staining based flow cytometry relative to control; type: functional
RPMI-8226 [9] = test: Growth inhibition of human RPMI8226 cells at 500 mg/L after 48 hrs by MTT assay relative to control; type: functional; settings: RPMI-8226, 48 h, read-out: GI
RPMI-8226 [10] = test: Growth inhibition of human RPMI8226 cells at 1500 mg/L after 48 hrs by MTT assay relative to control; type: functional; settings: RPMI-8226, 48 h, read-out: GI
RPMI-8226 [11] = test: Induction of apoptosis in human RPMI8226 cells at 1000 mg/L after 48 hrs by Annexin V/propidium iodide staining based flow cytometry (reference value: 3.02 +/- 1.19%); type: functional
MM1.S = test: Growth inhibition of human MM1S cells at […] after 24 hrs relative to control; type: functional; settings: read-out: GI
[12] = Growth inhibition of human MM1R cells at […] after 24 hrs relative to control; type: functional; settings: MM.1R, read-out: GI
RPMI-8226 [13] = test: Growth inhibition of human RPMI8226 cells after 24 hrs; type: functional, cell-based; settings: RPMI-8226, 24 h
RD [14] = test: Induction of apoptosis in human RD cells at 0.5 mg/ml after 24 hrs by Annexin V-FITC/propidium iodide staining based flow cytometry relative to control; type: functional
RD [15] = test: Induction of apoptosis in human RD cells at 1.5 mg/ml after 24 hrs by Annexin V-FITC/propidium iodide staining based flow cytometry relative to control; type: functional
EJ = test: Antiproliferative activity against human EJ cells after 48 hrs by CCK8 assay; type: functional, cell-based
KYSE-150 cell line [16] = test: Antiproliferative activity against human KYSE-150 cells assessed as cell viability at 1 mg/ml after 24 hrs by MTT assay relative to control; type: functional; settings: KYSE-150, 24 h, read-out: Activity
KYSE-150 cell line [17] = test: Antiproliferative activity against human KYSE-150 cells assessed as cell viability at 1.5 mg/ml after 24 hrs by MTT assay relative to control; type: functional; settings: KYSE-150, 24 h, read-out: Activity
KYSE-150 cell line [18] = test: Antiproliferative activity against human KYSE-150 cells assessed as cell viability at 2 mg/ml after 24 hrs by MTT assay relative to control; type: functional; settings: KYSE-150, 24 h, read-out: Activity
LoVo = test: Antiproliferative activity against human LoVo cells after 72 hrs by MTT assay; type: functional, cell-based
HT-29 [19] = test: Growth inhibition of human HT-29 cells at 4 ml/L after 24 hrs by MTT assay relative to control; type: functional
HT-29 [20] = test: Synergistic growth inhibition of human HT-29 cells at 0.25 mg/ml cotreated with 1.25 ug/ml irinotecan by MTT assay relative to control; type: functional
HT-29 [21] = test: Synergistic growth inhibition of human HT-29 cells at 1 mg/ml cotreated with 5 ug/ml irinotecan by MTT assay relative to control; type: functional
DLD-1 = test: Growth inhibition of human DLD1 cells after 24 hrs by MTT assay; type: functional, cell-based; settings: DLD-1, 24 h
[22] = Antiproliferative activity against human GBC-SD cells after 24 hrs by MTT assay; type: functional, cell-based
HOS-TE85 = test: Growth inhibition of human MNNG-HOS cells after 48 hrs by MTT assay; type: functional, cell-based; settings: HOS-TE85, 48 h
SAOS-2 = test: Growth inhibition of human Saos2 cells at 0.8 mg/ml after 48 hrs by MTT assay relative to control; type: functional; settings: SAOS-2, 48 h, read-out: GI
MG-63 [23] = test: Growth inhibition of human MG63 cells at 3.2 mg/ml after 48 hrs by MTT assay relative to control; type: functional; settings: MG-63, 48 h, read-out: GI
MG-63 [24] = test: Growth inhibition of human MG63 cells after 48 hrs by MTT assay; type: functional, cell-based; settings: MG-63, 48 h
U2OS = test: Growth inhibition of human U2OS cells after 48 hrs by MTT assay; type: functional, cell-based
UMR108 = test: Growth inhibition of rat UMR108 cells assessed as cell proliferation at 0.5 mg/ml after 24 hrs by MTT assay (reference value: 0.405 +/- 0.007%); type: functional; settings: UMR108, 24 h, read-out: Activity
[25] = Growth inhibition of human GRC1 cells at 0.8 g/L after 24 hrs by MTT assay relative to control; type: functional; settings: read-out: GI
[26] = Growth inhibition of human GRC1 cells at 0.5 g/L after 48 hrs by MTT assay relative to control; type: functional; settings: read-out: GI
[27] = Growth inhibition of human GRC1 cells at 1 g/L after 48 hrs by MTT assay relative to control; type: functional; settings: read-out: GI
[28] = Growth inhibition of human GRC1 cells at 0.3 g/L after 72 hrs by MTT assay relative to control; type: functional; settings: read-out: GI
[29] = Growth inhibition of human GRC1 cells at 0.3 g/L after 96 hrs by MTT assay relative to control; type: functional; settings: read-out: GI
M21 [30] = test: Growth inhibition of human M21 cells assessed as cell viability at 5 mg/ml after 48 hrs by MTT assay (reference value: 98%); type: functional; settings: M21, 48 h, read-out: Activity
M21 [31] = test: Induction of apoptosis in human M21 cells at 0.8 mg/ml after 48 hrs by Annexin V-FITC/propidium iodide staining based flow cytometry relative to control; type: functional
HK-2 = test: Antiproliferative activity against human HK2 cells after 48 hrs by CCK8 assay; type: functional, cell-based; settings: HK-2, 48 h

For O=C1CCC[C@@H]2[C@H]3CCCN4CCC[C@@H](CN12)[C@@H]34 [MATRINE], the Activity (A549) was 52.68%, the IC50 (MCF7 [1]) was 721 µg/mL (≈ 2900 µM) and the Activity (MCF7 [2]) was 4.17 - 19.63%. For the same compound, the Activity (SMMC-7721 [3]) was 3%, the Activity (SMMC-7721 [4]) was 55.1% and the Activity (SGC-7901 [5]) was 12.89%. For the same compound, the Activity (SGC-7901 [6]) was 22.34%, the Activity (PANC-1) was 8.71% and the IC50 (NB-4 [7]) was 0.00266 mM. For the same compound, the IC50 (U-937) was 0.00237 mM, the Activity (HL-60) was 41.1% and the Activity (NB-4 [8]) was 33%. The inhibition of growth at 500 µg/mL (RPMI-8226 [9]) was 17.9%, the inhibition of growth at 1500 µg/mL (RPMI-8226 [10]) was 39.4% and the Activity (RPMI-8226 [11]) was 18.48%. The inhibition of growth at 2 g/mL (MM1.S) was 73%, the inhibition of growth at 2 g/mL [12] was 74% and the IC50 (RPMI-8226 [13]) was 4.35 mM. For the same compound, the Activity (RD [14]) was 22.8%, the Activity (RD [15]) was 40.1% and the IC50 (EJ) was 5.09 mM. It also gave a viability at 1000 µg/mL (KYSE-150 cell line [16]) of 69.8%, a viability at 1500 µg/mL (KYSE-150 cell line [17]) of 64% and a viability at 2000 µg/mL (KYSE-150 cell line [18]) of 53.7%. For the same compound, the IC50 (LoVo) was 1.66 mM, the “growth inhibition (GI)” value (HT-29 [19]) was 17.88% and the “growth inhibition (GI)” value (HT-29 [20]) was 31.08%. For the same compound, the “growth inhibition (GI)” value (HT-29 [21]) was 87.61%, the IC50 (DLD-1) was 6.32 mM and the IC50 [22] was 3.6 mM. It also gave an IC50 (HOS-TE85) of 3.1 mM, an inhibition of growth at 800 µg/mL (SAOS-2) of 10% and an inhibition of growth at 3200 µg/mL (MG-63 [23]) of 86%. It also gave an IC50 (MG-63 [24]) of 7.05 mM, an IC50 (U2OS) of 7.25 mM and a growth at 500 µg/mL (UMR108) of 0.324%. It also gave an inhibition of growth at 800 µg/mL [25] of 20.5%, an inhibition of growth at 500 µg/mL [26] of 12.3% and an inhibition of growth at 1000 µg/mL [27] of 25.4%. It also gave an inhibition of growth at 300 µg/mL [28] of 14.9%, an inhibition of growth at 300 µg/mL [29] of 18.4% and a viability at 5000 µg/mL (M21 [30]) of 20%. For the same compound, the Activity (M21 [31]) was 40.3% and the IC50 (HK-2) was 4.71 mM.

— ChEMBL document CHEMBL4325859, “Research advances on anticancer activities of matrine and its derivatives: An updated overview” (Eur J Med Chem, 2019)
